According to article PMC10004634 (PLOS ONE, 2023):
Read-outs that look alike come from different tables or passages of the source.

Columns and labels:
Test in all cases: biochemical
Design in all cases: KINOMEscan scanMAX competition binding, DNA-tagged kinases, qPCR read-out, percent control at 300 nM
[1] = target: TIE1 (Homo sapiens, UniProt P35590)
[2] = target: LTK (Homo sapiens, UniProt P29376)
[3] = target: CLK2 (Homo sapiens, UniProt P49760)
[4] = target: T1, PIK4CB (Homo sapiens, UniProt Q9UBF8)
T1 construct: gene PI4KB

[5] = target: T2, LATS2 (Homo sapiens, UniProt Q9NRM7)
T2 sequence (Q9NRM7 1-1088): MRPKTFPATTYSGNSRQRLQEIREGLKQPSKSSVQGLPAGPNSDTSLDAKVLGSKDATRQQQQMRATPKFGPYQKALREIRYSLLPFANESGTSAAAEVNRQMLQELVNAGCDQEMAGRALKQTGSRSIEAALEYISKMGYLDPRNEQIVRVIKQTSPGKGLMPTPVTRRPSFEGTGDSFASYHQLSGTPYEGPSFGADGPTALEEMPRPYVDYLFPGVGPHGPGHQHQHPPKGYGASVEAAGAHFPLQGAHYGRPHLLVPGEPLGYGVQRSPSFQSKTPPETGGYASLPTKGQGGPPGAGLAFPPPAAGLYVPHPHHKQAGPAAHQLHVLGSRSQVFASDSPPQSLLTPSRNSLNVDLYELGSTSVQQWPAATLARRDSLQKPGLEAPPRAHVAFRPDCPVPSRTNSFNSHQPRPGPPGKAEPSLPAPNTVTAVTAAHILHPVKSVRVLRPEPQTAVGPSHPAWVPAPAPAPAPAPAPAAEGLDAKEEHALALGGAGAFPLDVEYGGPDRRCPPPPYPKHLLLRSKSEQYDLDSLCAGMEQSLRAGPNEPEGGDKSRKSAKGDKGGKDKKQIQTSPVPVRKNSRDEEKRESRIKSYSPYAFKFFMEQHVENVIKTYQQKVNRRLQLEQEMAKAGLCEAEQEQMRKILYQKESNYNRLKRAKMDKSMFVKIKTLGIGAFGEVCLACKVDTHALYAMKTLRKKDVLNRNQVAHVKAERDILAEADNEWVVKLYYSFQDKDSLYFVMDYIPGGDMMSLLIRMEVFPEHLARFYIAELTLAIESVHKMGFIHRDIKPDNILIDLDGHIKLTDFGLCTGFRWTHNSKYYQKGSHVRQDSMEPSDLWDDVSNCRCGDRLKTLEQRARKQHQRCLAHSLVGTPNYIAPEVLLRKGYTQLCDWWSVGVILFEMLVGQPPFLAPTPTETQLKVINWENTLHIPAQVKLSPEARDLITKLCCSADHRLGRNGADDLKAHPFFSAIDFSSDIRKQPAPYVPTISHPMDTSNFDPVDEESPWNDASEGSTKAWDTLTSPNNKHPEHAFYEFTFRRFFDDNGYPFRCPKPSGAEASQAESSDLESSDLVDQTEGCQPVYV

[6] = target: T3, HIPK4 (Homo sapiens, UniProt Q8NE63)
T3 sequence (Q8NE63 1-616): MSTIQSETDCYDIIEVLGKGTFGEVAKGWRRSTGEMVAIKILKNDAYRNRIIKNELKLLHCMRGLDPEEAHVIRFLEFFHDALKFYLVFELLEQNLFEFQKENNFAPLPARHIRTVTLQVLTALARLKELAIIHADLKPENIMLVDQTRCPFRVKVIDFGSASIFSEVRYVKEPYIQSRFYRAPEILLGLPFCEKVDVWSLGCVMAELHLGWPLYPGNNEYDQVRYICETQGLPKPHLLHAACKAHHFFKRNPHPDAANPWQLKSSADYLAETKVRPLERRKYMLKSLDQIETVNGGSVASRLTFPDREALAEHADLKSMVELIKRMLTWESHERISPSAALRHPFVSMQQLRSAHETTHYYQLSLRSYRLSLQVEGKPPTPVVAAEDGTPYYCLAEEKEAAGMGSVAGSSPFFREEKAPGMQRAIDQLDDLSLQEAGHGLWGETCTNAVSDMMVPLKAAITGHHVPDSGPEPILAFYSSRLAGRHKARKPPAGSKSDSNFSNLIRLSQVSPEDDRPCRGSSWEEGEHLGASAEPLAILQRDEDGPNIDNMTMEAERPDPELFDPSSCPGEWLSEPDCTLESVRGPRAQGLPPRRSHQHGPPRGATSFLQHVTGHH

[7] = target: FGFR2 (Homo sapiens, UniProt P21802)
[8] = target: KIT(V559D) (Homo sapiens, UniProt P10721, V559D)
[9] = read-out: Percent control / Tirabrutinib
[10] = read-out: Percent control / Ibrutinib
[11] = read-out: Percent control / Zanubrutinib
[12] = read-out: Percent control / Acalabrutinib

T1 sequence (Q9UBF8 whole entry): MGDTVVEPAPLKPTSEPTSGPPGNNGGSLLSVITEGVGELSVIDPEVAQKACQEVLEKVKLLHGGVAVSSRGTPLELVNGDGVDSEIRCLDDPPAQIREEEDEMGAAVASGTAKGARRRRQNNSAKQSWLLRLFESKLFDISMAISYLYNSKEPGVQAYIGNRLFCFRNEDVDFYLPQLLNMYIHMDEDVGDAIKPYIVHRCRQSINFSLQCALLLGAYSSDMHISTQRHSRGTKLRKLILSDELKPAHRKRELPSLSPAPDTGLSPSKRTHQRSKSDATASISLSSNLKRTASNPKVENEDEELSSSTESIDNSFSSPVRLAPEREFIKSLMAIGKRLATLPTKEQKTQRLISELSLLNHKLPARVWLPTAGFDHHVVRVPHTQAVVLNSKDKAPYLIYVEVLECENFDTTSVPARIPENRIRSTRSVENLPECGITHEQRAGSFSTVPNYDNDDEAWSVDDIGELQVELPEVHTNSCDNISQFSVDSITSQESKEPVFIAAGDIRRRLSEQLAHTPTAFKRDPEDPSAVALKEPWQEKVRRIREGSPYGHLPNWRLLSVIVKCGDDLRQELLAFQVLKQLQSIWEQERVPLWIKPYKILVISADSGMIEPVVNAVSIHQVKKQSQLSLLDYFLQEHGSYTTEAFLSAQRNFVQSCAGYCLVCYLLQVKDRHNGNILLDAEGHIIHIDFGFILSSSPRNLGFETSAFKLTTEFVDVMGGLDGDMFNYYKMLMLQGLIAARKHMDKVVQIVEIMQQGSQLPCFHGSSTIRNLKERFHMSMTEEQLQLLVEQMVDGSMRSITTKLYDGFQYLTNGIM
Sequence of TIE1 (P35590 whole entry): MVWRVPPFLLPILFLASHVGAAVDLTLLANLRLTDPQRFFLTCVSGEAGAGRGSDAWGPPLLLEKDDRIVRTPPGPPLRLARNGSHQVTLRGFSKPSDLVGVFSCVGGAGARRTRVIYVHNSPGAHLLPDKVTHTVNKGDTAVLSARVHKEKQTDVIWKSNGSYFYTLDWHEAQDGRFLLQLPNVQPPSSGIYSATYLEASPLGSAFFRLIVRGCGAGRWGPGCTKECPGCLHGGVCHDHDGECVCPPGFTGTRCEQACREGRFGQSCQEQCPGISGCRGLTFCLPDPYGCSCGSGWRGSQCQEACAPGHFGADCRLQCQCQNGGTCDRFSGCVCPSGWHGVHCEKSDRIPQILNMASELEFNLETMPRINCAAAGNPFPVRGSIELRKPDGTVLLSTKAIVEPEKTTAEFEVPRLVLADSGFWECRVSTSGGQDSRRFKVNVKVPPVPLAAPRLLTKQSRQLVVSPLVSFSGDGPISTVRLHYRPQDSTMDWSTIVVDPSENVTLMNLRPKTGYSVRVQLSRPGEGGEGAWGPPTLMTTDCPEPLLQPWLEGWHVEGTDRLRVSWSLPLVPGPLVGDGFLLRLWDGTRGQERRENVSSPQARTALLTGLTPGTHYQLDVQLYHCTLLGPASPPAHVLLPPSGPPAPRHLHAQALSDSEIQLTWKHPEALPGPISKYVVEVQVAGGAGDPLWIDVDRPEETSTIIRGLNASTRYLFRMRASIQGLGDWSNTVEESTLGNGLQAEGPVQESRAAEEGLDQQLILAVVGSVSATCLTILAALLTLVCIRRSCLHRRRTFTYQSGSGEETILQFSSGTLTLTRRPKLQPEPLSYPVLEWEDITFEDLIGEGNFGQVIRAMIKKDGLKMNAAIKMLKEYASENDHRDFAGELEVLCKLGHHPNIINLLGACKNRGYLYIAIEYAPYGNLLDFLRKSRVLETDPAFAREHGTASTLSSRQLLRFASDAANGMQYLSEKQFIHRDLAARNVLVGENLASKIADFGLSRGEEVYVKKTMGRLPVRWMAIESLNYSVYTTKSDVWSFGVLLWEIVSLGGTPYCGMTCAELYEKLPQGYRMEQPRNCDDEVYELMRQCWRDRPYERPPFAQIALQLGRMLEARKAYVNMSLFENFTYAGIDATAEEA
Sequence of KIT(V559D) (P10721 whole entry V559D): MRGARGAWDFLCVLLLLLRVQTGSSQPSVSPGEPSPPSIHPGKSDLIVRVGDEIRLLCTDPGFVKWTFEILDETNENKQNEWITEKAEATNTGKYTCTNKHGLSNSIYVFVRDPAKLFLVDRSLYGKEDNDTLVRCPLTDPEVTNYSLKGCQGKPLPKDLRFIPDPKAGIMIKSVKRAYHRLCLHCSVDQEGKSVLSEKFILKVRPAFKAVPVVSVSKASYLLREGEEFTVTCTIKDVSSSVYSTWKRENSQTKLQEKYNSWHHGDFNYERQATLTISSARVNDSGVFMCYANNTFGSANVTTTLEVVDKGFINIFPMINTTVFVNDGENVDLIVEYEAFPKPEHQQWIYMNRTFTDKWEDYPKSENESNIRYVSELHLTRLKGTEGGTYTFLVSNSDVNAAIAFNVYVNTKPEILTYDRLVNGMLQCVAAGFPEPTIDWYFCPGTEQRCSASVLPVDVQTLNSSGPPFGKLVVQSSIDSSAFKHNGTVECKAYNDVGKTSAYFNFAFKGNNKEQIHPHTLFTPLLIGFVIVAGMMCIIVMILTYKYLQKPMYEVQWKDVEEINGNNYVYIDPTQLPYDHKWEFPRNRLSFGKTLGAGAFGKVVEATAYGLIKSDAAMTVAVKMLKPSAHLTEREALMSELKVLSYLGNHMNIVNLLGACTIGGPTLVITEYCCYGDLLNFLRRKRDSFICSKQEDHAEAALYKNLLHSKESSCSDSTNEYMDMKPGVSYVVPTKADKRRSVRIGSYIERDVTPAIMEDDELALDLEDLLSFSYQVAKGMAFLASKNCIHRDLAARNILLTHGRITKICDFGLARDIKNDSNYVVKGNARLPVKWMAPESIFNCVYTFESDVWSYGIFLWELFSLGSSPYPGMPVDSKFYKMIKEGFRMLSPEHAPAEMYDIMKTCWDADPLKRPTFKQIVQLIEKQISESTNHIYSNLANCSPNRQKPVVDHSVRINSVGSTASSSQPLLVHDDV
Sequence of CLK2 (P49760 whole entry): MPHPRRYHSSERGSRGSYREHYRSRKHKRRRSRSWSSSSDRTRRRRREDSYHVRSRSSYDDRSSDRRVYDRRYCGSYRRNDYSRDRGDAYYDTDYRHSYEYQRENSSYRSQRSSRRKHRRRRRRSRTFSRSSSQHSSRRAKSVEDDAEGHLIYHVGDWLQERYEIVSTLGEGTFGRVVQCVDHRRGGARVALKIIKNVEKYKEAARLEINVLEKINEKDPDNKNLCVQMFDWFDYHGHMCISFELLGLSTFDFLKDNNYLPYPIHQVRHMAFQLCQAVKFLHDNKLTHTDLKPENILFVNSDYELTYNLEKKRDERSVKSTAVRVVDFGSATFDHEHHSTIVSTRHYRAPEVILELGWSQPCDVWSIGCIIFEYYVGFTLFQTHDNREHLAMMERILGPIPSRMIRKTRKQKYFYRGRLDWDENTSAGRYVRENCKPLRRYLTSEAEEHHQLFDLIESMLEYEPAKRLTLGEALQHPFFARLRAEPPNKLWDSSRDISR
Sequence of LTK (P29376 whole entry): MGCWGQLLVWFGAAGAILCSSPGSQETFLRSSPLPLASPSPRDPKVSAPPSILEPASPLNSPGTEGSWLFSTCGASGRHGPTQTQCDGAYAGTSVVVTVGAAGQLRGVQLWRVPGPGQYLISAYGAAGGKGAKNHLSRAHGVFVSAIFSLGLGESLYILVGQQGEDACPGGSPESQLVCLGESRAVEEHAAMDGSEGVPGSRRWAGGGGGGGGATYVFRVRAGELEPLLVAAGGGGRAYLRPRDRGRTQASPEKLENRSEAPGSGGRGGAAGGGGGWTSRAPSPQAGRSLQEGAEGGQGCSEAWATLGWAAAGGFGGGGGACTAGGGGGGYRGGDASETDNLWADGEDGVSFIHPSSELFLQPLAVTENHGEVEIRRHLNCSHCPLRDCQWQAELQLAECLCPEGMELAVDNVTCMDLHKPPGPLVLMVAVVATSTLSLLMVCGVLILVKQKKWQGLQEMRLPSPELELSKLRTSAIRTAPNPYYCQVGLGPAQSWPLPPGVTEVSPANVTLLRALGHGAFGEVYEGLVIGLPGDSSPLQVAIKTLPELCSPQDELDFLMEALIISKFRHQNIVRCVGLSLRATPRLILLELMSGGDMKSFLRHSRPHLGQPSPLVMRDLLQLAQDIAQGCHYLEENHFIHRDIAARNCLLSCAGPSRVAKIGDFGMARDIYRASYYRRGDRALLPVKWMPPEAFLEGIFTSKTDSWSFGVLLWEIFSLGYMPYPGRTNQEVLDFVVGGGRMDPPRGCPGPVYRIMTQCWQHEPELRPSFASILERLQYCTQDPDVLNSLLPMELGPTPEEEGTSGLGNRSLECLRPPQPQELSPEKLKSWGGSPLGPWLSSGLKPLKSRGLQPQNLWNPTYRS

CC#CC(=O)N1CC[C@@H](n2c(=O)n(-c3ccc(Oc4ccccc4)cc3)c3c(N)ncnc32)C1 [Tirabrutinib]
remaining binding at 0.3 µM [1, 9]: 90%
remaining binding at 0.3 µM [2, 9]: 100%
remaining binding at 0.3 µM [3, 9]: 94%
remaining binding at 0.3 µM [4, 9]: 79%
remaining binding at 0.3 µM [5, 9]: 92%

C=CC(=O)N1CCC[C@@H](n2nc(-c3ccc(Oc4ccccc4)cc3)c3c(N)ncnc32)C1 [Ibrutinib]
remaining binding at 0.3 µM [1, 10]: 75%
remaining binding at 0.3 µM [2, 10]: 78%
remaining binding at 0.3 µM [6, 10]: 98%
remaining binding at 0.3 µM [7, 10]: 65%
remaining binding at 0.3 µM [8, 10]: 55%

C=CC(=O)N1CCC([C@@H]2CCNc3c(C(N)=O)c(-c4ccc(Oc5ccccc5)cc4)nn32)CC1 [Zanubrutinib]
remaining binding at 0.3 µM [1, 11]: 98%
remaining binding at 0.3 µM [2, 11]: 92%
remaining binding at 0.3 µM [3, 11]: 87%
remaining binding at 0.3 µM [4, 11]: 94%
remaining binding at 0.3 µM [6, 11]: 87%
remaining binding at 0.3 µM [7, 11]: 93%
remaining binding at 0.3 µM [5, 11]: 82%
remaining binding at 0.3 µM [8, 11]: 87%

CC#CC(=O)N1CCC[C@H]1c1nc(-c2ccc(C(=O)Nc3ccccn3)cc2)c2c(N)nccn12 [Acalabrutinib]
remaining binding at 0.3 µM [1, 12]: 86%
remaining binding at 0.3 µM [2, 12]: 100%
remaining binding at 0.3 µM [3, 12]: 99%
remaining binding at 0.3 µM [4, 12]: 72%
remaining binding at 0.3 µM [6, 12]: 85%
remaining binding at 0.3 µM [7, 12]: 88%
remaining binding at 0.3 µM [5, 12]: 90%
remaining binding at 0.3 µM [8, 12]: 84%
